Measurements reported in patent US11065257B2, “Substituted pyrazoloazepin-4-ones and their use as phosphodiesterase inhibitors” (LEO Pharma A/S, priority 2016, dated 2021).

target: T1, human PDE4D catalytic domain (Homo sapiens, UniProt Q08499); assay: PDE4 Assay; assay type: biochemical; details: human PDE4D catalytic domain (S380-L740), TR-FRET with FAM-cAMP; expressed as a range of IC50; read-out: PDE4 Potency Range
T1 construct: UniProt no; Q08499 [S380-L740]
Experimental: The human PDE4D catalytic domain (UniProt no. Q08499 [S380-L740]) was incubated with a mixture of non-labelled cAMP (cyclic adenosine monophosphate) and fluorescein amidite (FAM) conjugated cAMP and titrated test or reference compound. Following brief incubation the enzymatic reaction was stopped by addition of binding buffer containing nanoparticles with immobilized trivalent metal ions capable of binding 1) AMP phospho groups and 2) terbium (Tb) donor fluorophores. Subsequent excitation of the Tb donor triggers time-resolved FRET to adjacent FAM acceptor molecules resulting in light emission. In the presence of a PDE4 inhibitor, AMP generation was reduced resulting in a lower fluorescence signal. The cAMP phosphodiester is not bound by the detection system.
The results were calculated as the molar concentrations resulting in 50% inhibition of the substrate cleavage compared to controls samples, and are expressed as a range of IC50 (nM).

T1 sequence (Q08499 380-740): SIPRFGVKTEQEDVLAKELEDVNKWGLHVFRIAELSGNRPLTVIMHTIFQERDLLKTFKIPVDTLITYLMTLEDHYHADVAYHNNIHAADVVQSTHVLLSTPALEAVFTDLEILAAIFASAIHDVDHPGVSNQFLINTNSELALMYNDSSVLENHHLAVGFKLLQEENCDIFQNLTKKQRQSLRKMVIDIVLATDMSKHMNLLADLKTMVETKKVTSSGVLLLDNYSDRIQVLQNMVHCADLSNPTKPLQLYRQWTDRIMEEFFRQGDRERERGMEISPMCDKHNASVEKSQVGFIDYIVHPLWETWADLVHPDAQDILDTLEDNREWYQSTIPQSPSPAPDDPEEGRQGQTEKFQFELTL

SMILES | IC50 [nM]
CCc1nn(CCOC(=O)c2ccno2)c2c1C(=O)NCC1(CCOCC1)C2 [Example 1, 2-(3-ethyl-4-oxo-spiro[6,8-dihydro-5H-pyrazolo[4,3-c]azepine-7,4′-tetrahydropyran]-1-yl)ethyl isoxazole-5-carboxylate] | 100 to 500
CCc1nn(CCOC(=O)c2cocn2)c2c1C(=O)NCC1(CCOCC1)C2 [Example 2, 2-(3-ethyl-4-oxo-spiro[6,8-dihydro-5H-pyrazolo[4,3-c]azepine-7,4′-tetrahydropyran]-1-yl)ethyl oxazole-4-carboxylate] | > 500
CCc1nn(CCOC(=O)c2cnn(C)c2)c2c1C(=O)NCC1(CCOCC1)C2 [Example 3, 2-(3-ethyl-4-oxo-spiro[6,8-dihydro-5H-pyrazolo[4,3-c]azepine-7,4′-tetrahydropyran]-1-yl)ethyl 1-methylpyrazole-4-carboxylate] | > 500
CCc1nn(CCOC(=O)c2cc(C)on2)c2c1C(=O)NCC1(CCOCC1)C2 [Example 4, 2-(3-ethyl-4-oxo-spiro[6,8-dihydro-5H-pyrazolo[4,3-c]azepine-7,4′-tetrahydropyran]-1-yl)ethyl 5-methylisoxazole-3-carboxylate] | 100 to 500
CCc1nn(CCOC(=O)c2coc(C)n2)c2c1C(=O)NCC1(CCOCC1)C2 [Example 5, 2-(3-ethyl-4-oxo-spiro[6,8-dihydro-5H-pyrazolo[4,3-c]azepine-7,4′-tetrahydropyran]-1-yl)ethyl 2-methyloxazole-4-carboxylate] | > 500
CCc1nn(CCOC(=O)c2cnc(C)o2)c2c1C(=O)NCC1(CCOCC1)C2 [Example 6, 2-(3-ethyl-4-oxo-spiro[6,8-dihydro-5H-pyrazolo[4,3-c]azepine-7,4′-tetrahydropyran]-1-yl)ethyl 2-methyloxazole-5-carboxylate] | > 500
CCc1nn(CCOC(=O)c2cscn2)c2c1C(=O)NCC1(CCOCC1)C2 [Example 7, 2-(3-ethyl-4-oxo-spiro[6,8-dihydro-5H-pyrazolo[4,3-c]azepine-7,4′-tetrahydropyran]-1-yl)ethyl thiazole-4-carboxylate] | > 500
CCc1nn(CCOC(=O)C2CCOCC2)c2c1C(=O)NCC1(CCOCC1)C2 [Example 8, 2-(3-ethyl-4-oxo-spiro[6,8-dihydro-5H-pyrazolo[4,3-c]azepine-7,4′-tetrahydropyran]-1-yl)ethyl tetrahydropyran-4-carboxylate] | > 500
CCc1nn(CCOC(=O)Cc2cccn2C)c2c1C(=O)NCC1(CCOCC1)C2 [Example 9, 2-(3-ethyl-4-oxo-spiro[6,8-dihydro-5H-pyrazolo[4,3-c]azepine-7,4′-tetrahydropyran]-1-yl)ethyl 2-(1-methylpyrrol-2-yl)acetate] | > 500
CCc1nn(CCOC(=O)c2cc(C)n(C)n2)c2c1C(=O)NCC1(CCOCC1)C2 [Example 10, 2-(3-ethyl-4-oxo-spiro[6,8-dihydro-5H-pyrazolo[4,3-c]azepine-7,4′-tetrahydropyran]-1-yl)ethyl 1,5-dimethylpyrazole-3-carboxylate] | > 500
CCc1nn(CCOC(=O)Cc2cc(C)on2)c2c1C(=O)NCC1(CCOCC1)C2 [Example 11, 2-(3-ethyl-4-oxo-spiro[6,8-dihydro-5H-pyrazolo[4,3-c]azepine-7,4′-tetrahydropyran]-1-yl)ethyl 2-(5-methylisoxazol-3-yl)acetate] | > 500
CCc1nn(CCOC(=O)Cc2cc(C)no2)c2c1C(=O)NCC1(CCOCC1)C2 [Example 12, 2-(3-ethyl-4-oxo-spiro[6,8-dihydro-5H-pyrazolo[4,3-c]azepine-7,4′-tetrahydropyran]-1-yl)ethyl 2-(3-methylisoxazol-5-yl)acetate] | > 500
CCc1nn(CCOC(=O)c2cc(C)ns2)c2c1C(=O)NCC1(CCOCC1)C2 [Example 13, 2-(3-ethyl-4-oxo-spiro[6,8-dihydro-5H-pyrazolo[4,3-c]azepine-7,4′-tetrahydropyran]-1-yl)ethyl 3-methylisothiazole-5-carboxylate] | 100 to 500
CCc1nn(CCOC(=O)c2nc(C)cs2)c2c1C(=O)NCC1(CCOCC1)C2 [Example 14, 2-(3-ethyl-4-oxo-spiro[6,8-dihydro-5H-pyrazolo[4,3-c]azepine-7,4′-tetrahydropyran]-1-yl)ethyl 4-methylthiazole-2-carboxylate] | 100 to 500
CCc1nn(CCOC(=O)Cc2csc(C)n2)c2c1C(=O)NCC1(CCOCC1)C2 [Example 15, 2-(3-ethyl-4-oxo-spiro[6,8-dihydro-5H-pyrazolo[4,3-c]azepine-7,4′-tetrahydropyran]-1-yl)ethyl 2-(2-methylthiazol-4-yl)acetate] | > 500
CCc1nn(CCOC(=O)C2CCN(C(C)=O)CC2)c2c1C(=O)NCC1(CCOCC1)C2 [Example 16, 2-(3-ethyl-4-oxo-spiro[6,8-dihydro-5H-pyrazolo[4,3-c]azepine-7,4′-tetrahydropyran]-1-yl)ethyl 1-acetylpiperidine-4-carboxylate] | > 500
CCc1nn(CCCOC(=O)c2c[nH]cn2)c2c1C(=O)NCC1(CCOCC1)C2 [Example 17, 3-(3-ethyl-4-oxo-spiro[6,8-dihydro-5H-pyrazolo[4,3-c]azepine-7,4′-tetrahydropyran]-1-yl)propyl 1H-imidazole-4-carboxylate] | > 500
CCc1nn(CCCOC(=O)c2cc[nH]n2)c2c1C(=O)NCC1(CCOCC1)C2 [Example 18, 3-(3-ethyl-4-oxo-spiro[6,8-dihydro-5H-pyrazolo[4,3-c]azepine-7,4′-tetrahydropyran]-1-yl)propyl 1H-pyrazole-3-carboxylate] | 100 to 500
CCc1nn(CCCOC(=O)c2ncc[nH]2)c2c1C(=O)NCC1(CCOCC1)C2 [Example 19, 3-(3-ethyl-4-oxo-spiro[6,8-dihydro-5H-pyrazolo[4,3-c]azepine-7,4′-tetrahydropyran]-1-yl)propyl 1H-imidazole-2-carboxylate] | > 500
CCc1nn(CCCOC(=O)c2cn[nH]c2)c2c1C(=O)NCC1(CCOCC1)C2 [Example 20, 3-(3-ethyl-4-oxo-spiro[6,8-dihydro-5H-pyrazolo[4,3-c]azepine-7,4′-tetrahydropyran]-1-yl)propyl 1H-pyrazole-4-carboxylate] | 100 to 500
CCc1nn(CCCOC(=O)c2ccon2)c2c1C(=O)NCC1(CCOCC1)C2 [Example 21, 3-(3-ethyl-4-oxo-spiro[6,8-dihydro-5H-pyrazolo[4,3-c]azepine-7,4′-tetrahydropyran]-1-yl)propyl isoxazole-3-carboxylate] | > 500
CCc1nn(CCCOC(=O)c2ccno2)c2c1C(=O)NCC1(CCOCC1)C2 [Example 22, 3-(3-ethyl-4-oxo-spiro[6,8-dihydro-5H-pyrazolo[4,3-c]azepine-7,4′-tetrahydropyran]-1-yl)propyl isoxazole-5-carboxylate] | 100 to 500
CCc1nn(CCCOC(=O)c2cocn2)c2c1C(=O)NCC1(CCOCC1)C2 [Example 23, 3-(3-ethyl-4-oxo-spiro[6,8-dihydro-5H-pyrazolo[4,3-c]azepine-7,4′-tetrahydropyran]-1-yl)propyl oxazole-4-carboxylate] | > 500
CCc1nn(CCCOC(=O)c2cnco2)c2c1C(=O)NCC1(CCOCC1)C2 [Example 24, 3-(3-ethyl-4-oxo-spiro[6,8-dihydro-5H-pyrazolo[4,3-c]azepine-7,4′-tetrahydropyran]-1-yl)propyl oxazole-5-carboxylate] | > 500
